The values below come from PubChem BioAssay AID624409 (The Scripps Research Institute Molecular Screening Center, 2012).

Calls of active or inactive are those of the source.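 The calls were made as follows: active = IC50 at or below 10 µM; inactive = IC50 above 10 µM.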

The target of the assay is Orexin/Hypocretin receptor type 1 (Homo sapiens) (UniProt O43613). Briefly: OX1R antagonist potency, calcium flux, late-stage follow-up, fluorescence, Fluo-8, CHO cells, powder samples (AID 624409). Conditions: Fluo-8 calcium fluorescence, orexin A. In general terms: Calcium assays in cells follow changes in intracellular calcium, usually with a dye or a luminescent sensor.
Sequence of Orexin/Hypocretin receptor type 1 (Homo sapiens) (O43613 whole entry, looked up): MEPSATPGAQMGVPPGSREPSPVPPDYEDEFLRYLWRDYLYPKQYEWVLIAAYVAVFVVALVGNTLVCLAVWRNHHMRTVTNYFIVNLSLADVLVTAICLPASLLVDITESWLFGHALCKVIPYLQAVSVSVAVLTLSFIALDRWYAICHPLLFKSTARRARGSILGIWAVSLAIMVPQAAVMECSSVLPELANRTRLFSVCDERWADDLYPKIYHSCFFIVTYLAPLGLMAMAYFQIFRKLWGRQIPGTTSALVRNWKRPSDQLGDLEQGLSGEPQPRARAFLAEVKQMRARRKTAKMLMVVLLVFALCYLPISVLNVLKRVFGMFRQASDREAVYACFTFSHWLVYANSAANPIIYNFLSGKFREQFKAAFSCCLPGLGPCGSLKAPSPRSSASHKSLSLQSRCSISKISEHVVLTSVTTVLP
`Cc1ccccc1NC(=O)C1CCCN1S(=O)(=O)c1ccccc1C(F)(F)F` (stereo unspecified): the IC50 was > 19.9 µM (inactive).

In the case of `CCOc1ccccc1C(=O)Nc1ccc2nc3n(c(=O)c2c1)CCCCC3`, the IC50 entry was “inactive”.

As for `O=C(CSc1ccc(-c2ccccc2)nn1)c1cccs1`, the IC50 is 7.92 µM.

Take `Cc1noc(C)c1COc1ccc(C(=O)OCC(=O)N2CC(=O)Nc3ccccc32)cc1`: the IC50 was > 19.9 µM (inactive).

As for `CSc1cccc(N2CC(C(=O)NCCN3C(=O)S/C(=C\c4cccnc4)C3=O)CC2=O)c1` (stereo unspecified), the IC50 was > 19.9 µM (inactive).

For `COc1cc(OC)c(-c2nc3ccccc3s2)cc1OC`, the IC50 result is “inactive”.

`CCOC(=O)N1CCN(C(=O)CSc2ccc(-c3ccccc3)nn2)CC1`: the IC50 is > 59.6 µM (inactive).

Turning to `COc1cccc(/C=C2/Oc3ccccc3N(CC(=O)NCC3CCCO3)C2=O)c1` (stereo unspecified), the IC50 was 3.8 µM.

On to `Cc1cccc(C=NNC(=O)c2cc3c(s2)-c2ccccc2CC3)c1`, for which the IC50 was 2.67 µM.

For `CCSC1=C(C#N)C(c2ccccc2Cl)C(C(=O)c2cccs2)C(O)(C(F)(F)F)N1` (stereo unspecified), the IC50 was 4.97 µM.

Regarding `COCCCNC(=O)CCC(=O)NNc1nc2ccccc2c2nc(-c3ccccc3)nn12`, the IC50 entry is “inactive”.

Regarding `Fc1cccc(Nc2nc3ccccc3n3cnnc23)c1`, the IC50 was > 59.6 µM (inactive).

On to `CCc1cc2c(SCC(=O)N(CC)c3c(N)n(Cc4ccccc4)c(=O)[nH]c3=O)ncnc2s1`, for which the IC50 is > 59.6 µM (inactive).

On to `CC(=C/c1ccccc1)/C=C1/SC(N2CCOCC2)=NC1=O`, for which the IC50 was 9.14 µM.

As to `CSc1cccc(NC(=O)C2CCCN2S(=O)(=O)c2ccc(Br)s2)c1` (stereo unspecified), the IC50 is 4.67 µM.

For the compound `O=C(CN1C(=O)/C(=C\c2cccc(Br)c2)Oc2ccccc21)NCC1CCCO1` (stereo unspecified), the IC50 was 5.01 µM.

For the compound `CCN(CC)c1ccc(NC(=O)Cn2c(C(C)NC(=O)c3ccccc3)nc3ccccc32)cc1` (stereo unspecified), the IC50 was > 59.6 µM (inactive).

As for `Cc1ccc(-c2csc3nnc(SCC(=O)Nc4nsc(-c5ccccc5)n4)n23)cc1`, the IC50 entry is “inactive”.

Take `Cc1cccc(NC(=O)[C@@H]2CCCN2S(=O)(=O)c2ccc(Cl)cc2)c1`: the IC50 was > 19.9 µM (inactive).

`Cc1c(NS(=O)(=O)c2cccc(C(=O)OCC(=O)N(C)C3CCCCC3)c2)c(=O)n(-c2ccccc2)n1C`: the IC50 result was “inactive”.

For `CCc1cc(C(=O)OCC(=O)N2CCC(c3ccccc3)=N2)sc1C`, the IC50 result is “inactive”.

For the compound `O=c1cc(CN2CC(O)Cc3ccc4ccccc4c32)nc2sccn12` (stereo unspecified), the IC50 was > 19.9 µM (inactive).

On to `COc1ccc(OC)c(S(=O)(=O)NCC(c2ccco2)N2CCc3ccccc32)c1` (stereo unspecified), for which the IC50 was 7.12 µM.

For `CN(N=Cc1cc([N+](=O)[O-])ccc1O)c1ccccc1`, the IC50 was > 59.6 µM (inactive).

Turning to `CCn1c(SCC(=O)Nc2ccc3c(c2)c2ccccc2n3CC)nnc1-c1cnccn1`, the IC50 result is “inactive”.

For `Cc1cc(Cl)ccc1OCCCC(=O)NCCN1C(=O)S/C(=C\c2cccnc2)C1=O`, the IC50 is 1.38 µM.

What is called IC50 is the midpoint of a concentration-inhibition curve.
